Columns and labels:
[1] = molecular target: human Cereblon WT GST-tagged protein (Homo sapiens (Human), UniProt Q96SW2); experiment: CRBN-binding affinity, HTRF (CEREBLON BINDING kit, CISBIO); conditions: HTRF inhibitory activity
Method in brief: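 HTRF competition format: test compound displaces Thalidomide-Red from GST-tagged human Cereblon WT, detected with a Eu-labelled anti-GST antibody. Percent CRBN binding inhibition was derived from the 620 nm signal, normalized to solvent-control and protein-free blank wells.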

[2] = molecular target: GSPT1 (Homo sapiens (Human), UniProt P15170+Q96SW2); experiment: Western blot, substrate protein expression in hPBMC: GSPT1; format: cell-based; conditions: hPBMC, compound 500 nM, 24 hours, Western blot
Method in brief: (§1)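 hPBMC, 1×10^6 cells/mL, 24 h compound exposure; RIPA lysis, BCA protein assay, SDS-PAGE, NC membrane immunoblot. Densitometry vs internal control → % protein remaining; degradation % = 100% − remaining; DC50 = conc. at 50% of DMSO band signal.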

[3] = molecular target: IKZF1 (Homo sapiens (Human), UniProt Q13422+Q96SW2); experiment: Western blot, substrate protein expression in hPBMC: IKZF1; format: cell-based; conditions: hPBMC, compound 500 nM, 24 hours, Western blot
Method in brief: as §1

[4] = molecular target: IKZF3 (Homo sapiens (Human), UniProt Q96SW2+Q9UKT9); experiment: Western blot, substrate protein expression in hPBMC: IKZF3; format: cell-based; conditions: hPBMC, compound 500 nM, 24 hours, Western blot
Method in brief: as §1

Chain of human Cereblon WT GST-tagged protein (Q96SW2 whole entry): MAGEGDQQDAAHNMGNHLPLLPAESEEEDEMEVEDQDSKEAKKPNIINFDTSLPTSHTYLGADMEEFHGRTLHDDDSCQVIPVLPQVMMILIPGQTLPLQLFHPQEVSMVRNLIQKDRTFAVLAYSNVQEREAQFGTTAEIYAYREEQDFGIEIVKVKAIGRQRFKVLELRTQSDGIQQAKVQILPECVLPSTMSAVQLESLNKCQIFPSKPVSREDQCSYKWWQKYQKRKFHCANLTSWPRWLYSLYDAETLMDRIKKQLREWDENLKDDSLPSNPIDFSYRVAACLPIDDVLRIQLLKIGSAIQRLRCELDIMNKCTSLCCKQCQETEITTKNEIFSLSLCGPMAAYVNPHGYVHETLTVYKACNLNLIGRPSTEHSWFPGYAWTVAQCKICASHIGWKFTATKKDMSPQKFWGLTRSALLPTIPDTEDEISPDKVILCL
Chain of IKZF1 (Q13422 whole entry): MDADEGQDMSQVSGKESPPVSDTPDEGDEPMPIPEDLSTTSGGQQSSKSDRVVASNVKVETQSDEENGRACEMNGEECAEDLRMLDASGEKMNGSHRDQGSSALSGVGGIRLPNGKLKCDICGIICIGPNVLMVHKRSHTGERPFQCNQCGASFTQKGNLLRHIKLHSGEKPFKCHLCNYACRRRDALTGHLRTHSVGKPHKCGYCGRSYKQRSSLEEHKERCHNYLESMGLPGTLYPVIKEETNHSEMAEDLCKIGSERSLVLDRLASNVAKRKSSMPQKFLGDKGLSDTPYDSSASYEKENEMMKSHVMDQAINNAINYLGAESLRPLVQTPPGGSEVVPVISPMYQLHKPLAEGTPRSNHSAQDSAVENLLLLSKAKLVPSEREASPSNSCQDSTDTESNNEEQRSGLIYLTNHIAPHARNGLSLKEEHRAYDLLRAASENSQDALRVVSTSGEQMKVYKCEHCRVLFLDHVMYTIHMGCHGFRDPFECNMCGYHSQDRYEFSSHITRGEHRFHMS
Chain of IKZF1 (Q96SW2 whole entry): as the sequence (Q96SW2 whole entry) above
Chain of IKZF1 (Q16531 whole entry partner): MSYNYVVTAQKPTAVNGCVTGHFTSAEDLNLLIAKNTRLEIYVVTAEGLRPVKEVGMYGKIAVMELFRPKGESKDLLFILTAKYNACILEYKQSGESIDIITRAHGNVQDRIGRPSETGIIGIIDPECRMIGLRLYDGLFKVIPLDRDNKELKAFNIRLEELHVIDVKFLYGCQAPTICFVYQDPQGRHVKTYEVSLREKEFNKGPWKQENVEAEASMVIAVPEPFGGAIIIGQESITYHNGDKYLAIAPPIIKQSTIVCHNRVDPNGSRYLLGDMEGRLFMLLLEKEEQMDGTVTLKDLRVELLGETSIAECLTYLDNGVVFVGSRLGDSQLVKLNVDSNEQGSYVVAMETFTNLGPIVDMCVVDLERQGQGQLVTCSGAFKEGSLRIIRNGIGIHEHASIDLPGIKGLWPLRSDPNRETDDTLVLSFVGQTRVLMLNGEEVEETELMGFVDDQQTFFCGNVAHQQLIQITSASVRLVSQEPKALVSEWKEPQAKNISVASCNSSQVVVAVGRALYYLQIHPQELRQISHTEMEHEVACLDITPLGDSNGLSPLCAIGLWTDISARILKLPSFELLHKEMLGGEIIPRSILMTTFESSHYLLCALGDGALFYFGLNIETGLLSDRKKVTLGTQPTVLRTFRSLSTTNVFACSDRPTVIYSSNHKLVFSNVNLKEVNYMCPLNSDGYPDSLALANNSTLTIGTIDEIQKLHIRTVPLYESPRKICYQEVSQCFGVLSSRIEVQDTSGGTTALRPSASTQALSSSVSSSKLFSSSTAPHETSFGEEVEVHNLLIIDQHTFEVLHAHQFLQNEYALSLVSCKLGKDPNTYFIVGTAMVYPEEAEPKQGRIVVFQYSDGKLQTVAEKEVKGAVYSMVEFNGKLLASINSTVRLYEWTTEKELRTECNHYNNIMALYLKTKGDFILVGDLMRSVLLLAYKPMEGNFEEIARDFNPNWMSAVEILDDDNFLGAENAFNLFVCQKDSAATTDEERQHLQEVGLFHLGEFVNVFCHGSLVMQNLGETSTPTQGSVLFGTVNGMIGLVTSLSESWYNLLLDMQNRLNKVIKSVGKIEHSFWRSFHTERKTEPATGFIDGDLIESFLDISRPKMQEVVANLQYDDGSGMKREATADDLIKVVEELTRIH
Chain of GSPT1 (P15170 whole entry): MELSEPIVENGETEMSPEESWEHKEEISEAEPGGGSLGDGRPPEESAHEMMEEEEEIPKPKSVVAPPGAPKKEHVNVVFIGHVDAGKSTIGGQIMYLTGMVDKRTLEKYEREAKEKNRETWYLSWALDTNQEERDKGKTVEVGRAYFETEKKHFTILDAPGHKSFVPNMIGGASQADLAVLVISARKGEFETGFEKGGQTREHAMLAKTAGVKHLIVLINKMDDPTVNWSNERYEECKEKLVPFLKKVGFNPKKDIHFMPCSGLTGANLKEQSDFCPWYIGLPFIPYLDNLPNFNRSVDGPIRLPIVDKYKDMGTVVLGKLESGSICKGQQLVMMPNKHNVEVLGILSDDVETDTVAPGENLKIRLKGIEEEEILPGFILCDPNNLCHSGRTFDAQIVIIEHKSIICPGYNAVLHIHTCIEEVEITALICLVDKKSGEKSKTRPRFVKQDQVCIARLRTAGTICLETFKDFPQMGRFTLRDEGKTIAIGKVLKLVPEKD
Chain of GSPT1 (Q96SW2 whole entry): as the sequence (Q96SW2 whole entry) above
Chain of GSPT1 (Q16531 whole entry partner): as the sequence (Q16531 whole entry partner) above
Chain of IKZF3 (Q9UKT9 whole entry): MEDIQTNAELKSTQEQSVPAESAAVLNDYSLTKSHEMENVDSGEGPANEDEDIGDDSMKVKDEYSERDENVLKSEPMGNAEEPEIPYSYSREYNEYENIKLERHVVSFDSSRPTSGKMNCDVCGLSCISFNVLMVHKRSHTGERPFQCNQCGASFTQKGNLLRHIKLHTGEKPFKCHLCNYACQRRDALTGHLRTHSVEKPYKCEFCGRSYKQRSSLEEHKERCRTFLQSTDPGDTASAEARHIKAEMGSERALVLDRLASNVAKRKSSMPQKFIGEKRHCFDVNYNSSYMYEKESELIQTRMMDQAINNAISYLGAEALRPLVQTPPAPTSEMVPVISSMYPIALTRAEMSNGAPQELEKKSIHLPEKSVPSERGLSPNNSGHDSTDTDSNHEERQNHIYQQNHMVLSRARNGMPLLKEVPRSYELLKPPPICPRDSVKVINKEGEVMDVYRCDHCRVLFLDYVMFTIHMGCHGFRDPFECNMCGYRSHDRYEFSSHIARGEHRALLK
Chain of IKZF3 (Q96SW2 whole entry): as the sequence (Q96SW2 whole entry) above
Chain of IKZF3 (Q16531 whole entry partner): as the sequence (Q16531 whole entry partner) above

`CC1CN(Cc2cc3c(cc2F)C(=O)N(C2CCC(=O)NC2=O)C3)CC(C)N1C(c1ccccc1)c1ccccc1` (stereo not drawn) [GT-05966, 3-(5-((4-benzhydryl-3,5-dimethylpiperazin-1-yl)methyl)-6-fluoro-1-oxoisoindolin-2-yl)piperidine-2,6-dione] was tested, and the IC50 [1] was 1 to 1.9 µM, the “substrate protein remaining % GSPT1” value [2] was “A (A represents 0% ≤ substrate protein remaining % ≤ 50%)” and the “substrate protein remaining % IKZF1” value [3] was “B (B represents substrate protein remaining % > 50%)”. For the same molecule, the “substrate protein remaining % IKZF3” value [4] was “B (B represents substrate protein remaining % > 50%)”.

`CC1CN(Cc2cc(F)c3c(c2)CN(C2CCC(=O)NC2=O)C3=O)CC(C)N1C(c1ccccc1)c1ccccc1` (stereo not drawn) [GT-05967, 3-(5-((4-benzhydryl-3,5-dimethylpiperazin-1-yl)methyl)-7-fluoro-1-oxoisoindolin-2-yl)piperidine-2,6-dione] was tested, and the IC50 [1] was 1 to 1.9 µM, the “substrate protein remaining % GSPT1” value [2] was “A (A represents 0% ≤ substrate protein remaining % ≤ 50%)” and the “substrate protein remaining % IKZF1” value [3] was “B (B represents substrate protein remaining % > 50%)”. For the same molecule, the “substrate protein remaining % IKZF3” value [4] was “A (A represents 0% ≤ substrate protein remaining % ≤ 50%)”.

For `O=C1CCC(N2Cc3c(ccc(CN4CCC5(CCN(C(c6ccccc6)c6ccccc6)CC5)C4)c3F)C2=O)C(=O)N1` (stereo not drawn) [GT-05970, 3-(5-((8-benzhydryl-2,8-diazaspiro[4.5]decan-2-yl)methyl)-4-fluoro-1-oxoisoindolin-2-yl)piperidine-2,6-dione], the IC50 [1] was 1 to 1.9 µM, the “substrate protein remaining % GSPT1” value [2] was “A (A represents 0% ≤ substrate protein remaining % ≤ 50%)” and the “substrate protein remaining % IKZF1” value [3] was “B (B represents substrate protein remaining % > 50%)”. For the same molecule, the “substrate protein remaining % IKZF3” value [4] was “B (B represents substrate protein remaining % > 50%)”.

`O=C1CCC(N2Cc3cc(CN4CCC5(CCN(C(c6ccccc6)c6ccccc6)CC5)C4)c(F)cc3C2=O)C(=O)N1` (stereo not drawn) [GT-05971, 3-(5-((8-benzhydryl-2,8-diazaspiro[4.5]decan-2-yl)methyl)-6-fluoro-1-oxoisoindolin-2-yl)piperidine-2,6-dione] was tested, and the IC50 [1] was 1 to 1.9 µM, the “substrate protein remaining % GSPT1” value [2] was “A (A represents 0% ≤ substrate protein remaining % ≤ 50%)” and the “substrate protein remaining % IKZF1” value [3] was “B (B represents substrate protein remaining % > 50%)”. The “substrate protein remaining % IKZF3” value [4] was “B (B represents substrate protein remaining % > 50%)”.

In the case of `O=C1CCC(N2Cc3c(CN4CCC5(CCN(C(c6ccccc6)c6ccccc6)CC5)C4)cccc3C2=O)C(=O)N1` (stereo not drawn) [GT-05973, 3-(4-((8-benzhydryl-2,8-diazaspiro[4.5]decan-2-yl)methyl)-1-oxoisoindolin-2-yl)piperidine-2,6-dione], the IC50 [1] is reported as 1 to 1.9 µM, the “substrate protein remaining % GSPT1” value [2] is reported as “A (A represents 0% ≤ substrate protein remaining % ≤ 50%)” and the “substrate protein remaining % IKZF1” value [3] is reported as “B (B represents substrate protein remaining % > 50%)”. For the same molecule, the “substrate protein remaining % IKZF3” value [4] was “A (A represents 0% ≤ substrate protein remaining % ≤ 50%)”.

`O=C1CCC(N2C(=O)c3ccc(N4CC5CCC4CN5C(c4ccccc4)c4ccccc4)cc3C2=O)C(=O)N1` (stereo not drawn) [GT-05976, 5-(5-benzhydryl-2,5-diazabicyclo[2.2.2]octan-2-yl)-2-(2,6-dioxopiperidin-3-yl) isoindoline-1,3-dione] was tested, and the IC50 [1] was under 0.5 µM, the “substrate protein remaining % GSPT1” value [2] was “A (A represents 0% ≤ substrate protein remaining % ≤ 50%)” and the “substrate protein remaining % IKZF1” value [3] was “B (B represents substrate protein remaining % > 50%)”. The “substrate protein remaining % IKZF3” value [4] was “B (B represents substrate protein remaining % > 50%)”.

With `O=C1CCC(N2Cc3cc(C(=O)N4CC5CCC(C4)N5C(c4ccccc4)c4ccccc4)ccc3C2=O)C(=O)N1` (stereo not drawn) [GT-05980, 3-(5-(8-benzhydryl-3,8-diazabicyclo[3.2.1]octane-3-carbonyl)-1-oxoisoindolin-2-yl)piperidine-2,6-dione] the IC50 [1] was 0.5 to 1 µM, the “substrate protein remaining % GSPT1” value [2] was “A (A represents 0% ≤ substrate protein remaining % ≤ 50%)” and the “substrate protein remaining % IKZF1” value [3] was “A (A represents 0% ≤ substrate protein remaining % ≤ 50%)”. For the same molecule, the “substrate protein remaining % IKZF3” value [4] was “B (B represents substrate protein remaining % > 50%)”.

For `O=C1CCC(N2Cc3cc(C(=O)N4CCN(C5c6ccccc6-c6ccccc65)CC4)ccc3C2=O)C(=O)N1` (stereo not drawn) [GT-05986, 3-(5-(4-(9H-fluoren-9-yl)piperazine-1-carbonyl)-1-oxoisoindolin-2-yl)piperidine-2,6-dione], the IC50 [1] was under 0.5 µM, the “substrate protein remaining % GSPT1” value [2] was “A (A represents 0% ≤ substrate protein remaining % ≤ 50%)” and the “substrate protein remaining % IKZF1” value [3] was “B (B represents substrate protein remaining % > 50%)”. The “substrate protein remaining % IKZF3” value [4] was “B (B represents substrate protein remaining % > 50%)”.

In the case of `O=C1CCC(N2Cc3cc(C(=O)N4CC5(CCN(C(c6ccccc6)c6ccccc6)CC5)C4)ccc3C2=O)C(=O)N1` (stereo not drawn) [GT-05988, 3-(5-(7-benzhydryl-2,7-diazaspiro[3.5]nonane-2-carbonyl)-1-oxoisoindolin-2-yl)piperidine-2,6-dione], the IC50 [1] is reported as under 0.5 µM, the “substrate protein remaining % GSPT1” value [2] is reported as “A (A represents 0% ≤ substrate protein remaining % ≤ 50%)” and the “substrate protein remaining % IKZF1” value [3] is reported as “B (B represents substrate protein remaining % > 50%)”. The “substrate protein remaining % IKZF3” value [4] was “B (B represents substrate protein remaining % > 50%)”.

In the case of `O=C1CCC(N2Cc3c(CN4CCC5(CC4)CCN(C(c4ccccc4)c4ccccc4)CC5)cccc3C2=O)C(=O)N1` (stereo not drawn) [GT-06027, 3-(4-((9-benzhydryl-3,9-diazaspiro[5.5]undecan-3-yl)methyl)-1-oxoisoindolin-2-yl)piperidine-2,6-dione], the IC50 [1] is reported as 1 to 1.9 µM, the “substrate protein remaining % GSPT1” value [2] is reported as “A (A represents 0% ≤ substrate protein remaining % ≤ 50%)” and the “substrate protein remaining % IKZF1” value [3] is reported as “B (B represents substrate protein remaining % > 50%)”. The “substrate protein remaining % IKZF3” value [4] was “B (B represents substrate protein remaining % > 50%)”.

In the case of `O=C1CCC(N2Cc3c(ccc(CN4CC5CN(C(c6ccccc6)c6ccccc6)CC5C4)c3F)C2=O)C(=O)N1` (stereo not drawn) [GT-06044, 3-(5-((5-benzhydrylhexahydropyrrolo[3,4-c]pyrrol-2 (1H)-yl)methyl)-4-fluoro-1-oxoisoindolin-2-yl)piperidine-2,6-dione], the IC50 [1] is reported as under 0.5 µM, the “substrate protein remaining % GSPT1” value [2] is reported as “A (A represents 0% ≤ substrate protein remaining % ≤ 50%)” and the “substrate protein remaining % IKZF1” value [3] is reported as “B (B represents substrate protein remaining % > 50%)”. The “substrate protein remaining % IKZF3” value [4] was “A (A represents 0% ≤ substrate protein remaining % ≤ 50%)”.

With `O=C1CCC(N2Cc3cc(CN4CC5CN(C(c6ccccc6)c6ccccc6)CC5C4)cc(F)c3C2=O)C(=O)N1` (stereo not drawn) [GT-06045, 3-(5-((5-benzhydrylhexahydropyrrolo[3,4-c]pyrrol-2 (1H)-yl)methyl)-7-fluoro-1-oxoisoindolin-2-yl)piperidine-2,6-dione] the IC50 [1] was under 0.5 µM, the “substrate protein remaining % GSPT1” value [2] was “A (A represents 0% ≤ substrate protein remaining % ≤ 50%)” and the “substrate protein remaining % IKZF1” value [3] was “B (B represents substrate protein remaining % > 50%)”. The “substrate protein remaining % IKZF3” value [4] was “B (B represents substrate protein remaining % > 50%)”.

`C[C@@H]1CN(C(c2ccccc2)c2ccccc2)CCN1Cc1cc2c(cc1F)C(=O)N(C1CCC(=O)NC1=O)C2` (stereo partly drawn) [GT-06046, 3-(5-(((R)-4-benzhydryl-2-methylpiperazin-1-yl)methyl)-6-fluoro-1-oxoisoindolin-2-yl)piperidine-2,6-dione] was tested, and the IC50 [1] was 0.5 to 1 µM, the “substrate protein remaining % GSPT1” value [2] was “A (A represents 0% ≤ substrate protein remaining % ≤ 50%)” and the “substrate protein remaining % IKZF1” value [3] was “B (B represents substrate protein remaining % > 50%)”. The “substrate protein remaining % IKZF3” value [4] was “B (B represents substrate protein remaining % > 50%)”.

With `O=C1CCC(N2Cc3cc(CN4CCN(C5c6cc(Cl)ccc6-c6ccc(Cl)cc65)CC4)ccc3C2=O)C(=O)N1` (stereo not drawn) [GT-06048, 3-(5-((4-(2,7-dichloro-9H-fluoren-9-yl)piperazin-1-yl)methyl)-1-oxoisoindolin-2-yl)piperidine-2,6-dione] the IC50 [1] was under 0.5 µM, the “substrate protein remaining % GSPT1” value [2] was “A (A represents 0% ≤ substrate protein remaining % ≤ 50%)” and the “substrate protein remaining % IKZF1” value [3] was “A (A represents 0% ≤ substrate protein remaining % ≤ 50%)”. For the same molecule, the “substrate protein remaining % IKZF3” value [4] was “A (A represents 0% ≤ substrate protein remaining % ≤ 50%)”.

`O=C1CCC(N2Cc3cc(CN4CC5CN(C(c6ccccc6)c6ccccc6)CC5C4)ccc3C2=O)C(=O)N1` (stereo not drawn) [GT-06050, 3-(5-((5-benzhydrylhexahydropyrrolo[3,4-c]pyrrol-2 (1H)-yl)methyl)-1-oxoisoindolin-2-yl)piperidine-2,6-dione] was tested, and the IC50 [1] was under 0.5 µM, the “substrate protein remaining % GSPT1” value [2] was “A (A represents 0% ≤ substrate protein remaining % ≤ 50%)” and the “substrate protein remaining % IKZF1” value [3] was “B (B represents substrate protein remaining % > 50%)”. The “substrate protein remaining % IKZF3” value [4] was “B (B represents substrate protein remaining % > 50%)”.
